The nature of data set [1]: Half life was determined. The settings on record: rat. The class given is ADME.
For data set [2], the system named is Mus musculus. Kind of data set: Intravenous effective dose against L-5-hydroxytryptophan induced generalized tremors in mice. It counts as functional.
Data set [3] has as its system Mus musculus. Kind of data set: Oral effective dose against L-5-hydroxytryptophan induced generalized tremors in mice; Range is 0.1-0.2 mg/Kg. The class given is functional.
For data set [4], the species on record is Mus musculus. Kind of data set: Oral effective dose against phenylethylamine-induced stereotypy in mice. The class given is functional.
Data set [5] has as its target T1, Amine oxidase [flavin-containing] A (Homo sapiens, UniProt P21397).
T1 sequence (P21397 whole entry): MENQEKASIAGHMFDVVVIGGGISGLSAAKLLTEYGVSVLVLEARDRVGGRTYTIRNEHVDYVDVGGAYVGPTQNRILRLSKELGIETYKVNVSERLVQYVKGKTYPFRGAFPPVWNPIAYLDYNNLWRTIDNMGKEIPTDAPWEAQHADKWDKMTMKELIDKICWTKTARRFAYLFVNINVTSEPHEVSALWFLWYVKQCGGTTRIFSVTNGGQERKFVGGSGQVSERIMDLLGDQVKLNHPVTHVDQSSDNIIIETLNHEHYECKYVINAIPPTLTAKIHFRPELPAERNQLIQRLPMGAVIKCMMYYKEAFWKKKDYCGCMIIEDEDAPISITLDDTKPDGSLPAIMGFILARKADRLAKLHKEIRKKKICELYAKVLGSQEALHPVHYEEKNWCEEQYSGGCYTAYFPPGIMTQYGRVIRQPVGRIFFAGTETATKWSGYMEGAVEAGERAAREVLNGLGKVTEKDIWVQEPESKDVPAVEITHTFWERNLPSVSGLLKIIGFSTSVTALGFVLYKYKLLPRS
Kind of data set: Compound was tested for inhibition of MAOA in human brain, heart, liver and duodenum homogenates; Range is 1.9-3.6 nM. It counts as tissue-based.

Data set [6] concerns the target T2, Amine oxidase [flavin-containing] A (Rattus norvegicus, UniProt P21396).
T2 sequence (P21396 whole entry): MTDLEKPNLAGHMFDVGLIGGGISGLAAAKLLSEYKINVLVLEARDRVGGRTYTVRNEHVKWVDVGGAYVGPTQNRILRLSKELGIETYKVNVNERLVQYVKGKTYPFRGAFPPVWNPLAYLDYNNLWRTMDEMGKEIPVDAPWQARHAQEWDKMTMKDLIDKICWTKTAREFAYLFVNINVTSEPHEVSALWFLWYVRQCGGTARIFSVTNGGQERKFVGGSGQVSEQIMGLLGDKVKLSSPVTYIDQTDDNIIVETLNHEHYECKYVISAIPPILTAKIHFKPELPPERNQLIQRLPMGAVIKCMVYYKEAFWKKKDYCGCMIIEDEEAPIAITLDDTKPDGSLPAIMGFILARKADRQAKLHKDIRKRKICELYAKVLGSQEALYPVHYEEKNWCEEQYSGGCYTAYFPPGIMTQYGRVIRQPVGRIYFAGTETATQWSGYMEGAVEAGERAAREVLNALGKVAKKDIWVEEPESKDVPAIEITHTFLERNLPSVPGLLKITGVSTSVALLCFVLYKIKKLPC
Nature of the data set: Compound was tested for inhibition of MAOA in rat brain, heart, liver and duodenum homogenates; Range is 1.9-3.6 nM. It counts as tissue-based.

In the case of `COC[C@H]1CN(c2ccc(OCC[C@@H](O)C(F)(F)F)cc2)C(=O)O1` [BEFLOXATONE], the half-life (commonly how long it takes for the measured level to halve) in data set [1] turned out to be 20.4 min. Further, the ED50 (as a rule, the dose that gives a 50% effect, or the effect in half of the subjects) in the data set on Mus musculus [2] was 0.07 mg/kg; in the data set on Mus musculus [3] it was 0.2 mg/kg; in the data set filed under Mus musculus [4] it was 58 mg/kg. The Ri in data set [5] and in data set [6] was 1.9 nM in each case.
